Reference: patent publication US10717716B2, “1,3,4-oxadiazole derivative compounds as histone deacetylase 6 inhibitor, and the pharmaceutical composition comprising the same” (Chong Kun Dang Pharmaceutical Corp., priority 2015, dated 2020)

Molecular target: T1, human recombinant HDAC6 (Homo sapiens, UniProt Q9UBN7)
T1 construct: purchased Calbiochem 382180
T1 sequence (Q9UBN7 1-1215): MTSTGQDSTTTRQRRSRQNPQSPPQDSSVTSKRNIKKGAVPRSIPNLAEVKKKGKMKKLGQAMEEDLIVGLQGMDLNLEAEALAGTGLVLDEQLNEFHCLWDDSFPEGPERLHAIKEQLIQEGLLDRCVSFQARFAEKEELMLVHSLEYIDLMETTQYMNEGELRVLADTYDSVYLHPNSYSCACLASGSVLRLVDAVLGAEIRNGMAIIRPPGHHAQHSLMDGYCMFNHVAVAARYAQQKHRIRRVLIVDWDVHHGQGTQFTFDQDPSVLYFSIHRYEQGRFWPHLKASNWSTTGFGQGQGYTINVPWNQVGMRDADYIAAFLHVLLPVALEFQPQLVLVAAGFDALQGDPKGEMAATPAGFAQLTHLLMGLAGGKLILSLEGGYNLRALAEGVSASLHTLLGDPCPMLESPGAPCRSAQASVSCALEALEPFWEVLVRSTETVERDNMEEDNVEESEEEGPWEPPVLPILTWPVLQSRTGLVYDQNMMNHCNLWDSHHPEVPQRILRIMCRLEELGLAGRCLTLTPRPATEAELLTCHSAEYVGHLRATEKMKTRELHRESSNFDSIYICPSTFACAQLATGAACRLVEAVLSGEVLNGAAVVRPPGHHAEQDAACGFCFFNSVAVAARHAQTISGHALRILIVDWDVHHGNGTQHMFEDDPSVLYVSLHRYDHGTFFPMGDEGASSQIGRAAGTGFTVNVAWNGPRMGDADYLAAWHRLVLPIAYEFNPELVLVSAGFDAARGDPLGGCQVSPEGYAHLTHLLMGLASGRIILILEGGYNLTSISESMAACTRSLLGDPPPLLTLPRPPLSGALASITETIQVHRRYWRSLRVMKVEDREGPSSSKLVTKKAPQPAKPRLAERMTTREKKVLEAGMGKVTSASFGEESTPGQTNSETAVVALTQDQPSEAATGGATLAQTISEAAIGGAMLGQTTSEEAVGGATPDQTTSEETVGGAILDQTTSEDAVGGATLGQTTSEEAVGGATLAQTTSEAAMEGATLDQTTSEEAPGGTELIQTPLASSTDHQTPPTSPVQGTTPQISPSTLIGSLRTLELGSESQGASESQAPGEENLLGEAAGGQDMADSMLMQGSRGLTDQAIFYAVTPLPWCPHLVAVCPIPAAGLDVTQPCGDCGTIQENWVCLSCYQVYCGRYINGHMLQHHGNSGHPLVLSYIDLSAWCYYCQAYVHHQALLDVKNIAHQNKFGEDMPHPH
Experiment: HDAC6 enzyme activity inhibition assay (HDAC Fluorimetric Drug Discovery Kit)
Format: biochemical
Settings: for HDAC6 selectivity (fold): HDAC6 over HDAC1; for IC50: human recombinant HDAC6, same protocol as HDAC1, read-out: HDAC6
Method in brief: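 Human recombinant HDAC1 or HDAC6 (0.3 μg) reacted with 10 μM Fluor de Lys-SIRT1 substrate and 5-fold compound dilutions for 60 min at 30 °C. Developer II added for 30 min, fluorescence read at Ex 360/Em 460; IC50 calculated from the readings.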

Row | SMILES | HDAC6 selectivity (fold) | IC50
1 | CCN1CCN(C(=O)N(Cc2ccc(-c3nnc(C(F)F)o3)cn2)c2ccccc2)CC1 [Compound 21624, N-((5-(5-(difluoromethyl)-1,3,4-oxadiazol-2-yl)pyridin-2-yl)methyl)-4-ethyl-N-phenylpiperazine-1-carboxamide] | 347 fold | 29 nM
2 | O=C(N1CCS(=O)(=O)CC1)N(Cc1ccc(-c2nnc(C(F)F)o2)cn1)c1cccc(Cl)c1 [Compound 21626, N-(3-chlorophenyl)-N-((5-(5-(difluoromethyl)-1,3,4-oxadiazol-2-yl)pyridin-2-yl)methyl)thiomorpholine-4-carboxamide 1,1-dioxide] | 645 fold | 16 nM
3 | CN1CCN(c2cccc(N(Cc3ccc(-c4nnc(C(F)F)o4)cn3)C(=O)N3CCS(=O)(=O)CC3)c2)CC1 [Compound 21627, N-((5-(5-(difluoromethyl)-1,3,4-oxadiazol-2-yl)pyridin-2-yl)methyl)-N-(3-(4-methylpiperazin-1-yl)phenyl)thiomorpholine-4-carboxamide 1,1-dioxide] | 22 fold | 457 nM
4 | O=C(N1CCS(=O)(=O)CC1)N(Cc1ccc(-c2nnc(C(F)F)o2)cn1)c1ccc(Oc2ccccc2)cc1 [Compound 21631, N-((5-(5-(difluoromethyl)-1,3,4-oxadiazol-2-yl)pyridin-2-yl)methyl)-N-(4-phenoxyphenyl)thiomorpholine-4-carboxamide 1,1-dioxide] | 138 fold | 72 nM
5 | Cc1ccccc1N(Cc1ccc(-c2nnc(C(F)(F)F)o2)cn1)C(=O)N1CCN(C)CC1 [Compound 21633, 4-Methyl-N-(o-tolyl)-N-((5-(5-(trifluoromethyl)-1,3,4-oxadiazol-2-yl)pyridin-2-yl)methyl)piperazine-1-carboxamide] | 58 fold | 173 nM
6 | CN(C)[C@H]1CCN(C(=O)N(Cc2ccc(-c3nnc(C(F)F)o3)cc2F)c2cccc(Cl)c2F)C1 [Compound 21643, (S)—N-(3-chloro-2-fluorophenyl)-N-(4-(5-(difluoromethyl)-1,3,4-oxadiazol-2-yl)-2-fluorobenzyl)-3-(dimethylamino)pyrrolidine-1-carboxamide] | 352 fold | 28 nM
7 | CN(C)[C@H]1CCN(C(=O)N(Cc2ccc(-c3nnc(C(F)(F)F)o3)cc2F)c2cccc(Cl)c2F)C1 [Compound 21644, (S)—N-(3-chloro-2-fluorophenyl)-3-(dimethylamino)-N-(2-fluoro-4-(5-(trifluoromethyl)-1,3,4-oxadiazol-2-yl)benzyl)pyrrolidine-1-carboxamide] | 74 fold | 135 nM
8 | CCN1CCN(C(=O)N(Cc2ccc(-c3nnc(C(F)F)o3)cc2F)c2cccc(Cl)c2F)CC1 [Compound 21646, N-(3-chloro-2-fluorophenyl)-N-(4-(5-(difluoromethyl)-1,3,4-oxadiazol-2-yl)-2-fluorobenzyl)-4-ethylpiperazine-1-carboxamide] | 317 fold | 32 nM
9 | O=C(N1CCS(=O)(=O)CC1)N(Cc1ccc(-c2nnc(C(F)F)o2)cc1F)c1ccc(F)cn1 [Compound 21653, N-(4-(5-(difluoromethyl)-1,3,4-oxadiazol-2-yl)-2-fluorobenzyl)-N-(5-fluoropyridin-2-yl)thiomorpholine-4-carboxamide 1,1-dioxide] | 246 fold | 41 nM
10 | CCN1CCN(C(=O)N(Cc2ccc(-c3nnc(C(F)F)o3)cc2F)c2ccc(C)c(Cl)c2)CC1 [Compound 21657, N-(3-chloro-4-methylphenyl)-N-(4-(5-(difluoromethyl)-1,3,4-oxadiazol-2-yl)-2-fluorobenzyl)-4-ethylpiperazine-1-carboxamide] | 226 fold | 44 nM
11 | CN1CCN(C(=O)N(Cc2ccc(-c3nnc(C(F)F)o3)cc2F)c2cccc3cnn(C)c23)CC1 [Compound 21707, N-(4-(5-(Difluoromethyl)-1,3,4-oxadiazol-2-yl)-2-fluorobenzyl)-4-methyl-N-(1-methyl-1H-indazol-7-yl)piperazine-1-carboxamide] | 199 fold | 50 nM
12 | O=C(N1CC2(COC2)C1)N(Cc1ccc(-c2nnc(C(F)F)o2)cc1F)c1cccc(F)c1 [Compound 21759, N-(4-(5-(difluoromethyl)-1,3,4-oxadiazol-2-yl)-2-fluorobenzyl)-N-(3-fluorophenyl)-2-oxa-6-azaspiro[3.3]heptane-6-carboxamide] | 405 fold | 25 nM

Continued by falling IC50, values first:

Row | HDAC6 selectivity (fold) | IC50 | SMILES
13 | 37 fold | 271 nM | CN1CCN(c2ccc(N(Cc3ccc(-c4nnc(C(F)F)o4)cn3)C(=O)N3CCS(=O)(=O)CC3)cc2)CC1 [Compound 21628, N-((5-(5-(difluoromethyl)-1,3,4-oxadiazol-2-yl)pyridin-2-yl)methyl)-N-(4-(4-methylpiperazin-1-yl)phenyl)thiomorpholine-4-carboxamide 1,1-dioxide]
14 | 46 fold | 216 nM | CN(C)[C@@H]1CCN(C(=O)N(Cc2ccc(-c3nnc(C(F)(F)F)o3)cc2F)c2cccc(Cl)c2F)C1 [Compound 21645, (R)—N-(3-chloro-2-fluorophenyl)-3-(dimethylamino)-N-(2-fluoro-4-(5-(trifluoromethyl)-1,3,4-oxadiazol-2-yl)benzyl)pyrrolidine-1-carboxamide]
15 | 83 fold | 120 nM | CN1CCN(C(=O)N(Cc2ccc(-c3nnc(C(F)(F)F)o3)cn2)c2ccccc2F)CC1 [Compound 21634, N-(2-fluorophenyl)-4-methyl-N-((5-(5-(trifluoromethyl)-1,3,4-oxadiazol-2-yl)pyridin-2-yl)methyl)piperazine-1-carboxamide]
16 | 167 fold | 60 nM | Cn1ncc2cccc(N(Cc3ccc(-c4nnc(C(F)F)o4)cc3F)C(=O)N3CCS(=O)(=O)CC3)c21 [Compound 21708, N-(4-(5-(Difluoromethyl)-1,3,4-oxadiazol-2-yl)-2-fluorobenzyl)-N-(1-methyl-1H-indazol-7-yl)thiomorpholine-4-carboxamide 1,1-dioxide]
17 | 215 fold | 46 nM | Cc1cccc(N(Cc2ccc(-c3nnc(C(F)F)o3)cc2F)C(=O)N2CC3(COC3)C2)c1 [Compound 21760, N-(4-(5-(difluoromethyl)-1,3,4-oxadiazol-2-yl)-2-fluorobenzyl)-N-(m-tolyl)-2-oxa-6-azaspiro[3.3]heptane-6-carboxamide]
18 | 245 fold | 41 nM | Cc1ccccc1N(Cc1ccc(-c2nnc(C(F)F)o2)cn1)C(=O)N1CCN(C)CC1 [Compound 21632, N-((5-(5-(difluoromethyl)-1,3,4-oxadiazol-2-yl)pyridin-2-yl)methyl)-4-methyl-N-(o-tolyl)piperazine-1-carboxamide]
19 | 422 fold | 24 nM | O=C(N1CCS(=O)(=O)CC1)N(Cc1ccc(-c2nnc(C(F)F)o2)cn1)c1ccccc1F [Compound 21625, N-((5-(5-(difluoromethyl)-1,3,4-oxadiazol-2-yl)pyridin-2-yl)methyl)-N-(2-fluorophenyl)thiomorpholine-4-carboxamide 1,1-dioxide]
20 | 549 fold | 18 nM | O=C(N1CCOCC1)N(Cc1ccc(-c2nnc(C(F)F)o2)cn1)c1ccccc1 [Compound 21630, N-((5-(5-(difluoromethyl)-1,3,4-oxadiazol-2-yl)pyridin-2-yl)methyl)-N-phenylmorpholine-4-carboxamide]
21 | 690 fold | 15 nM | CCN1CCN(C(=O)N(Cc2ccc(-c3nnc(C(F)F)o3)cc2F)c2cccc(F)c2F)CC1 [Compound 21655, N-(4-(5-(difluoromethyl)-1,3,4-oxadiazol-2-yl)-2-fluorobenzyl)-N-(2,3-difluorophenyl)-4-ethylpiperazine-1-carboxamide]
22 | 880 fold | 11 nM | CCN1CCN(C(=O)N(Cc2ccc(-c3nnc(C(F)F)o3)cn2)c2ccc(F)c(Cl)c2)CC1 [Compound 21629, N-(3-chloro-4-fluorophenyl)-N-((5-(5-(difluoromethyl)-1,3,4-oxadiazol-2-yl)pyridin-2-yl)methyl)-4-ethylpiperazine-1-carboxamide]
